Key:
GPCR-B4 = target: T1, GPCR-B4 (Rattus norvegicus, UniProt Q9Z0R7); assay: ligand-induced changes in [Ca2+]i in HEK-293 cells expressing B4/Gα15 (fluorescent Ca2+-indicator dyes, fluorometric imaging); format: cell-based; details: HEK-293 line expressing SV40 T-antigen; B4 receptor dependent
T1 construct: expressed in transfected cells; host or cells: HEK-293 line expressing SV40 T-antigen; pEAK-10 episomal vector (Edge Biosystems) with EF1a-[B4-GPCR] construct; TK-Gα15
T1 sequence (Q9Z0R7 20-843): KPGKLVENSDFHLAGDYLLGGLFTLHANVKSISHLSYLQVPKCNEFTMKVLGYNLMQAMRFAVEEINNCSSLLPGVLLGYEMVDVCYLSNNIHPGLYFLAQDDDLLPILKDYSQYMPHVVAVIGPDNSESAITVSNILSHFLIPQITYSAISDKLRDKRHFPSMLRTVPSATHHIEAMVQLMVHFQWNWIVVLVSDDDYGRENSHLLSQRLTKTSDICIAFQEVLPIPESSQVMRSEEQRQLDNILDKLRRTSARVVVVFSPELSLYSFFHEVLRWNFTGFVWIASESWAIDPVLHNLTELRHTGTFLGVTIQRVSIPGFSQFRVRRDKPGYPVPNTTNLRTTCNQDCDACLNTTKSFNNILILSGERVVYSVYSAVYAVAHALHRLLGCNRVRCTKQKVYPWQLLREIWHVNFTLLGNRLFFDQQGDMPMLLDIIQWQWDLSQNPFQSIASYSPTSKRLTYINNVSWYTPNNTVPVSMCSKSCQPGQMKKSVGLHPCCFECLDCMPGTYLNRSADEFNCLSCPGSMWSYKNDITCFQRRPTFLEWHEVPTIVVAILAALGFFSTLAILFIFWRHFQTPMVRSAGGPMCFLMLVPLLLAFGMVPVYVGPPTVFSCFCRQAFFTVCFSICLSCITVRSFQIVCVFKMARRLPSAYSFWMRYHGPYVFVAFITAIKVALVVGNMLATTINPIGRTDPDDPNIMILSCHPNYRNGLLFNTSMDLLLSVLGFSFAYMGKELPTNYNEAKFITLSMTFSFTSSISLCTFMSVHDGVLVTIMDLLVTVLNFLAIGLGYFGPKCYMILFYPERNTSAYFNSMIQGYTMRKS
Excerpt: (§1) To determine the ligand selectivity of GPCR-B4, expression in heterologous cells was used. One issue for GPCR expression in heterologous cells is determining how to couple the GPCR to a G-protein and an appropriate signaling pathway. In this example, the G-protein subunit Gα15 was used, which promiscuously couples a wide range of GPCRs to the phospholipase C-mediated signaling pathway (Offermans & Simon, J. Biol. Chem. 270:15175-15180 (1995)). Consequently, receptor activity can be effectively measured by recording ligand-induced changes in [Ca^2+]i using fluorescent Ca^2+-indicator dyes and fluorometric imaging.
(§2) To insure expression of GPCR-B4 in the plasma membrane, a variety of cell lines and expression vectors were tested. […] An HEK-293 line expressing SV40 T-antigen was co-transfected with a TK-Gα15, CMV-γ-opiod and a pEAK-10 episomal vector (Edge Biosystems) containing a EF1a-[B4-GPCR]construct. Transfection efficiencies were determined using CMV-GFP constructs.

[1] = target: T2, mammalian γ-opiod receptor (Homo sapiens, UniProt P35372); assay: ligand-induced changes in [Ca2+]i in control cells expressing γ-opiod/Gα15; format: cell-based; details: HEK-293 control cells; dependent on Gα15; rapid onset
T2 construct: expressed in transfected cells; host or cells: HEK-293 line expressing SV40 T-antigen; CMV-γ-opiod and TK-Gα15 constructs
T2 sequence (P35372 whole entry): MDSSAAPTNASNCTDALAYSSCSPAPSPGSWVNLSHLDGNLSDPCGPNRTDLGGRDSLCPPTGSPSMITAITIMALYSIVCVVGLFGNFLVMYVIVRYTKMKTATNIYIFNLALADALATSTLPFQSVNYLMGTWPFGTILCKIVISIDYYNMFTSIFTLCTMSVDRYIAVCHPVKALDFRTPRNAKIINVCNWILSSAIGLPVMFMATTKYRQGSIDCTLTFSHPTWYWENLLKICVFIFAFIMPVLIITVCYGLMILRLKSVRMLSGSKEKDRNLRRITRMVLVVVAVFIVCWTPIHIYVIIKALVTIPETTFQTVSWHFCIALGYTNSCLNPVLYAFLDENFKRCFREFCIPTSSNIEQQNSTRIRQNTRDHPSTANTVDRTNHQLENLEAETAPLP
Excerpt: as §1, §2

Row | Structure (SMILES) | response (change in [Ca2+]i) of cells expressing B4/Gα15 or B4/Gα15/γ-opiod (GPCR-B4) | response (change in [Ca2+]i) of control cells expressing γ-opiod/Gα15 [1]
1 | NC(=S)Nc1ccccc1 [PTC, phenylthiocarbamide] | respond | –
2 | C[C@@H](NC(=O)[C@@H](N)Cc1ccc(O)cc1)C(=O)NCC(=O)N(C)[C@@H](Cc1ccccc1)C(=O)NCCO [DAMGO] | – | respond robustly

Source: US10031129B2, “G-protein coupled receptor polypeptides involved in sensory transduction” (The Regents of the University of California, priority 1998, dated 2018)
